# Data reported in US20240067639A1, “SMALL MOLECULES THAT TARGET THE RNA THAT CAUSES ALS” (EXPANSION THERAPEUTICS, INC., priority 2020, published 2024).
# pKi: −log10 of the molar value.
# Biological target: biotinylated r(G4C2)8 RNA and hnRNP H1-His6
# Test: TR-FRET hnRNP H binding assay
# Details: Table D
# Description: TR-FRET hnRNP H Binding Assay. The TR-FRET assays were performed as previously described (Disney et al., 2012) except the final concentrations of biotinylated r(G4C2)8 (SEQ ID NO: 2) RNA and hnRNP H1-His6 were 80 nM and 75 nM, respectively. The RNA was folded by heating to 95° C. for 5 min in 1× Folding Buffer followed by slowly cooling to room temperature. The buffer was adjusted to 1×TR-FRET Assay Buffer followed by addition of compound. The mixture was incubated for 15 min at room temperature and then hnRNP H1-His6 was added. After an additional 15 min incubation, streptavidin-XL665 (HTRF, Cisbio Bioassays) and anti-His6-Tb (HTRF, Cisbio Bioassays) were added to a final concentration of 40 nM and 0.44 ng/μL, respectively. After incubating for 1 h, TR-FRET was measured as previously described. The IC50s were either calculated by fitting the equation (1) in Graphpad Prism.
row,pKi,Structure (SMILES)
1,< 3.70,"COc1ccc2c(c1)c1cc3cnccc3c(C)c1n2Cc1ccncc1 [Compound 16, 9-methoxy-5-methyl-6-(pyridin-4-ylmethyl)-6H-pyrido[4,3-b]carbazole]"
2,< 3.70,"COc1ccc2c(c1)c1cc3cnccc3c(C)c1n2Cc1ccccc1 [Compound 17, 6-benzyl-9-methoxy-5-methyl-6H-pyrido[4,3-b]carbazole]"
3,< 3.70,"COc1ccc2c(c1)c1cc3cnccc3c(C)c1n2C(C)C [Compound 18, 6-isopropyl-9-methoxy-5-methyl-6H-pyrido[4,3-b]carbazole]"
4,< 3.70,"COc1ccc2c(c1)c1cc3cnccc3c(C)c1n2C[C@@H](O)c1ccccc1 [Compound 19, (S)-2-(9-methoxy-5-methyl-6H-pyrido[4,3-b]carbazol-6-yl)-1-phenylethan-1-ol]"
5,< 3.70,"COc1ccc2c(c1)c1cc3cnccc3c(C)c1n2CCN(C)C [Compound 20, 2-(9-methoxy-5-methyl-6H-pyrido[4,3-b]carbazol-6-yl)-N,N-dimethylethan-1-amine]"
6,< 3.70,"COc1ccc2c(c1)c1cc3cnccc3c(C)c1n2CC1=NCCN1 [Compound 21, 6-((4,5-dihydro-1H-imidazol-2-yl)methyl)-9-methoxy-5-methyl-6H-pyrido[4,3-b]carbazole]"
7,< 3.70,"COc1ccc2c(c1)c1cc3cnccc3c(C)c1n2CCCN1CCN(C)CC1 [Compound 22, 9-methoxy-5-methyl-6-(3-(4-methylpiperazin-1-yl)propyl)-6H-pyrido[4,3-b]carbazole]"
8,< 3.70,"COc1ccc2c(c1)c1cc3c(C(=O)O)nccc3c(C)c1n2C [Compound 24, 9-methoxy-5,6-dimethyl-6H-pyrido[4,3-b]carbazole-1-carboxylic acid]"
9,< 3.70,"Cc1c2ccncc2cc2c3cc(OCCN4CCC(F)(F)CC4)ccc3n(C)c12 [Example 40, 9-(2-(4,4-difluoropiperidin-1-yl)ethoxy)-5,6-dimethyl-6H-pyrido[4,3-b]carbazole]"

# Same assay, conditions: Table F
row,pKi,Structure (SMILES)
1,< 3.70,"Cn1c2ccc(OCCN3CCOCC3)cc2c2cc3ncccc3cc21 [Compound 225, 4-(2-((6-methyl-6H-pyrido[3,2-b]carbazol-9-yl)oxy)ethyl)morpholine]"
2,5.12,"Cc1c2ccncc2cc2c1oc1ccc(OCC3=NCCN3)cc12 [Compound 233, 9-((4,5-dihydro-1H-imidazol-2-yl)methoxy)-5-methylbenzofuro[2,3-g]isoquinoline]"
3,4.70,"Cc1c2ccnc(C(C)C)c2cc2c3cc(C(=O)NCCN(C)C)ccc3n(C)c12 [Compound 238, N-(2-(dimethylamino)ethyl)-1-isopropyl-5,6-dimethyl-6H-pyrido[4,3-b]carbazole-9-carboxamide]"
4,4.62,"Cc1c2ccncc2cc2c3cc(C(=O)OCCN(C)C)ccc3n(C)c12 [Compound 239, 2-(dimethylamino)ethyl 5,6-dimethyl-6H-pyrido[4,3-b]carbazole-9-carboxylate]"
5,4.70,"COc1cccc2c3cc4c(C(=O)N[C@H](C)CN(C)C)nccc4c(C)c3n(C)c12 [Compound 240, (R)—N-(1-(dimethylamino)propan-2-yl)-7-methoxy-5,6-dimethyl-6H-pyrido[4,3-b]carbazole-1-carboxamide]"
6,5.74,"Cc1c2ccnc(C(=O)N[C@H](C)CN(C)C)c2cc2c3c(OCCCN4CCN(C)CC4)cccc3n(C)c12 [Compound 241, (R)—N-(1-(dimethylamino)propan-2-yl)-5,6-dimethyl-10-(3-(4-methylpiperazin-1-yl)propoxy)-6H-pyrido[4,3-b]carbazole-1-carboxamide]"
7,4.72,"Cc1c2ccncc2cc2c3cc(OCc4ncc[nH]4)ccc3n(C)c12 [Compound 251, 9-((1H-imidazol-2-yl)methoxy)-5,6-dimethyl-6H-pyrido[4,3-b]carbazole]"

row,Structure (SMILES),pKi
1,"CN(C)CCOc1ccc2c(c1)c1cc3ncccc3cc1n2C [Compound 226, N,N-dimethyl-2-((6-methyl-6H-pyrido[3,2-b]carbazol-9-yl)oxy)ethanamine]",4.89
